In PMC3914206:

Tests used:
panel of 442 kinases = molecular target: T1, panel of 442 kinases (Homo sapiens, UniProt Q5S007); format: binding; conditions: Compound Concentration 10 µM
T1 construct: purchased KINOMEscan
Text: We assessed the selectivity of members of this scaffold using the KINOMEscan methodology across a near comprehensive panel of 442 kinases [[18,27]].

[1] = molecular target: T2, selected panels of kinases in HeLa and PC3 cell lysates (Homo sapiens, UniProt P21127); assay: KiNativ chemical proteomics profiling in HeLa and PC3 cell lysates; format: binding; conditions: 10 uM; PITSLRE; peptide DLk[…]; proteome PC3; labeling site Lys2
T2 construct: endogenous in cells; host or cells: HeLa and PC3 cell lysates
T2 sequence (P21127 whole entry): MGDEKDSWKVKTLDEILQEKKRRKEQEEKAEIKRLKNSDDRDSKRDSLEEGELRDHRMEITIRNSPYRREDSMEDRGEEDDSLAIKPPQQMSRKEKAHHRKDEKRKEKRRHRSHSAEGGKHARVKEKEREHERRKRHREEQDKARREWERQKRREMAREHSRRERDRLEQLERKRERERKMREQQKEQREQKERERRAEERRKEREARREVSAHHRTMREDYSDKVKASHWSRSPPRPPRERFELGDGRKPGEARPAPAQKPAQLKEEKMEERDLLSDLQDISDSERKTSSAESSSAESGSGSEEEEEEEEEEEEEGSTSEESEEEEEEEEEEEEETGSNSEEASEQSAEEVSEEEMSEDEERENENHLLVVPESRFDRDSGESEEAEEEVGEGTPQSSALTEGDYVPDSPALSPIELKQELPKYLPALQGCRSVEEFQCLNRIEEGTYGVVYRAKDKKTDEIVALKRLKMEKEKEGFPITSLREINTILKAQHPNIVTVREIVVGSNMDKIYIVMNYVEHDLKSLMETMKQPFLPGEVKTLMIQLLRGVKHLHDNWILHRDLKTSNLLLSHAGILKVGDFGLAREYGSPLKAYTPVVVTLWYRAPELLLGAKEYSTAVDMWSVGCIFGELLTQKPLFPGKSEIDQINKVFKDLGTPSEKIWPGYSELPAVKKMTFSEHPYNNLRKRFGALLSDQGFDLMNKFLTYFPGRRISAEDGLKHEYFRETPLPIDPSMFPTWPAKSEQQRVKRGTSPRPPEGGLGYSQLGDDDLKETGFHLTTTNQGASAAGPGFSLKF

[2] = molecular target: T3, selected panels of kinases in HeLa and PC3 cell lysates (Homo sapiens, UniProt P27361); assay: as above; format: binding; conditions: 10 uM, peptide DLk[…], labeling site Lys2
T3 construct: endogenous in cells; host or cells: HeLa and PC3 cell lysates
T3 sequence (P27361 whole entry): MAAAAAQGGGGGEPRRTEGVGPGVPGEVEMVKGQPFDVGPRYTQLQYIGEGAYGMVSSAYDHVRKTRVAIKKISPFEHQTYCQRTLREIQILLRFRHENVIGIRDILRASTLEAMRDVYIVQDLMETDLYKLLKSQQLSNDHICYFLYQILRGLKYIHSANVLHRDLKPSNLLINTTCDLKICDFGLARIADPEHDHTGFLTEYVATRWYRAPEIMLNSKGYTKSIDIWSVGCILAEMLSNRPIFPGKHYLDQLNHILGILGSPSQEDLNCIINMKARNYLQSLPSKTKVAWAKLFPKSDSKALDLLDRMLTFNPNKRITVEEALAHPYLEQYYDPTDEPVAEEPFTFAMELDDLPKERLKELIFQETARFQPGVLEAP

[3] = molecular target: T4, selected panels of kinases in HeLa and PC3 cell lysates (Homo sapiens, UniProt P51617); assay: as above; format: binding; conditions: 10 uM; proteome PC3; peptide […]k[…]; labeling site Lys2
T4 construct: endogenous in cells; host or cells: HeLa and PC3 cell lysates
T4 sequence (P51617 whole entry): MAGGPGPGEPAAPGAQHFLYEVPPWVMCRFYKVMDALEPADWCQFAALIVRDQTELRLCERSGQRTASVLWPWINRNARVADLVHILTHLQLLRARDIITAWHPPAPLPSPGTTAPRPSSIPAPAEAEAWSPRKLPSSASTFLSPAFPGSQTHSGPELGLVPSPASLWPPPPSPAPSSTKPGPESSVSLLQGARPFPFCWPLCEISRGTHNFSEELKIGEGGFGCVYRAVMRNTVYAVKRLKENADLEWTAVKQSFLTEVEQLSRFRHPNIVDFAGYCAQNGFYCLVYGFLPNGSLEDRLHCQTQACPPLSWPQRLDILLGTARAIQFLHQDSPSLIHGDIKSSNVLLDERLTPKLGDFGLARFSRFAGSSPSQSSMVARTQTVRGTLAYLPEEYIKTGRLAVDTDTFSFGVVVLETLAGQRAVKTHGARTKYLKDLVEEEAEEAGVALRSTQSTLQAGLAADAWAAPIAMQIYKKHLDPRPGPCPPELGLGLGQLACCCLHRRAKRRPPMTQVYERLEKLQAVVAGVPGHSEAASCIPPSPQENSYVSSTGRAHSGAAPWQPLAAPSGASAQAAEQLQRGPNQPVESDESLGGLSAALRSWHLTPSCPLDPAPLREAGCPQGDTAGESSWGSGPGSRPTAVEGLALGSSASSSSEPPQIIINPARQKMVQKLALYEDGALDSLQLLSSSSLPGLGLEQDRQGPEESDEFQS

[4] = molecular target: T5, selected panels of kinases in HeLa and PC3 cell lysates (Homo sapiens, UniProt Q9Y2U5); assay: as above; format: binding; conditions: 10 uM, proteome PC3, labeling site Lys1
T5 construct: endogenous in cells; host or cells: HeLa and PC3 cell lysates
T5 sequence (Q9Y2U5 1-619): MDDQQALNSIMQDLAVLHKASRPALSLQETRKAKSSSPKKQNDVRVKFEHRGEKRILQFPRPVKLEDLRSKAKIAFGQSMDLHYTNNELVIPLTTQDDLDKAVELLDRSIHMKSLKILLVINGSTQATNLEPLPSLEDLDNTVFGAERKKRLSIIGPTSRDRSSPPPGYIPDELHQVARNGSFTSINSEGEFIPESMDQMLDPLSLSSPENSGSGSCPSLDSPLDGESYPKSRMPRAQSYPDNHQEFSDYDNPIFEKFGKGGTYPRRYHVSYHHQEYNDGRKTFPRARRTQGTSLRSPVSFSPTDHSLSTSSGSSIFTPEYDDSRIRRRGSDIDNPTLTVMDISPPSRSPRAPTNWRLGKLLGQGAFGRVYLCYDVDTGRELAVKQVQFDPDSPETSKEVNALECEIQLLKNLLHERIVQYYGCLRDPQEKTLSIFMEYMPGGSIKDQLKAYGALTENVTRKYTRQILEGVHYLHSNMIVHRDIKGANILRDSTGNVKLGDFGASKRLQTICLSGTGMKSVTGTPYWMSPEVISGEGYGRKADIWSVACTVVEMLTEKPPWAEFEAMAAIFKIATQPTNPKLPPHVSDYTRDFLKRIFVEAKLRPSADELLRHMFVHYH

[5] = system: selected panels of kinases in HeLa and PC3 cell lysates; assay: as above; format: binding, human; conditions: 10 uM; for % Inhibition PI4KA,PI4KAP2: peptide SGTPMQSAAkAPYLAK, labeling site ATP; for % Inhibition PKD1,PKD2: peptide NIVHCDLk[…]; for % Inhibition ROCK1,ROCK2: peptide DVkPDNMLLDK; for % Inhibition RSK1,RSK4 domain1: peptide VLGQGSFGkVFLVR; for % Inhibition RSK1,RSK4 domain1 / % Inhibition p70S6K,p70S6Kb / % Inhibiton, MSK1,MSK2 domain1: labeling site ATP Loop; for % Inhibition SRPK1,SRPK2: peptide FVAMkVVK; for % Inhibition TAO1,TAO3 / % Inhibition ZC1/HGK,ZC2/TNIK,ZC3/MINK / % Inhibiton, NEK6,NEK7 / % Inhibiton, MST1,MST2 / % Inhibiton, MST4,YSK1: peptide DIk[…]; for % Inhibition Wnk1,Wnk2,Wnk4: peptide IGDLGLATLkR; for % Inhibition Wnk1,Wnk2,Wnk4 / % Inhibiton, ABL,ARG / % Inhibiton, FYN,SRC,YES: labeling site Activation Loop; for % Inhibition p70S6K,p70S6Kb: peptide GGYGkVFQVR; for % Inhibiton, MAP3K2,MAP3K3: peptide DIkGANILR; for % Inhibiton, IKKe,TBK1: peptide DIkPGNIMR; for % Inhibiton, JNK1,JNK2,JNK3: peptide DLkPSNIVVK; for % Inhibiton, MAP2K1,MAP2K2: peptide DVkPSNILVNSR; for % Inhibiton, MYO3A,MYO3B / % Inhibiton, CK1d,CK1e: peptide DVk[…]; for % Inhibiton, BMX,BTK: peptide GQYDVAIkMIK; for % Inhibiton, MAP3K5,MAP3K6,MAP3K7: peptide IAIkEIPERDSR; for % Inhibiton, KSR1,KSR2: peptide SkNVFYDNGK, labeling site Protein Kinase Domain; for % Inhibiton, MSK1,MSK2 domain1: peptide VLGTGAYGkVFLVR; for % Inhibiton, ABL,ARG: peptide […]kFPIK; for % Inhibiton, CaMK2a,CaMK2b,CaMK2d,CaMK2g: peptide DLkPENLLLASK; for % Inhibiton, MARK3,MARK4: peptide EVAIkIIDK; for % Inhibiton, FYN,SRC,YES: peptide QGAk[…]
[6] = peptide DLk[…], proteome PC3, labeling site Lys2
[7] = proteome HEL, labeling site Lys2
[8] = proteome PC3, labeling site Lys2
[9] = peptide DLk[…], proteome HEL, labeling site Lys2
[10] = proteome PC3, labeling site Lys1
[11] = proteome HEL, peptide DLk[…], labeling site Lys2
[12] = proteome HEL, labeling site Lys1
[13] = proteome HEL, peptide VAVkILNR, labeling site Lys1
[14] = proteome PC3, peptide DLk[…], labeling site Lys2
[15] = proteome PC3, peptide VAVkILNR, labeling site Lys1

T1 sequence (Q5S007 whole entry): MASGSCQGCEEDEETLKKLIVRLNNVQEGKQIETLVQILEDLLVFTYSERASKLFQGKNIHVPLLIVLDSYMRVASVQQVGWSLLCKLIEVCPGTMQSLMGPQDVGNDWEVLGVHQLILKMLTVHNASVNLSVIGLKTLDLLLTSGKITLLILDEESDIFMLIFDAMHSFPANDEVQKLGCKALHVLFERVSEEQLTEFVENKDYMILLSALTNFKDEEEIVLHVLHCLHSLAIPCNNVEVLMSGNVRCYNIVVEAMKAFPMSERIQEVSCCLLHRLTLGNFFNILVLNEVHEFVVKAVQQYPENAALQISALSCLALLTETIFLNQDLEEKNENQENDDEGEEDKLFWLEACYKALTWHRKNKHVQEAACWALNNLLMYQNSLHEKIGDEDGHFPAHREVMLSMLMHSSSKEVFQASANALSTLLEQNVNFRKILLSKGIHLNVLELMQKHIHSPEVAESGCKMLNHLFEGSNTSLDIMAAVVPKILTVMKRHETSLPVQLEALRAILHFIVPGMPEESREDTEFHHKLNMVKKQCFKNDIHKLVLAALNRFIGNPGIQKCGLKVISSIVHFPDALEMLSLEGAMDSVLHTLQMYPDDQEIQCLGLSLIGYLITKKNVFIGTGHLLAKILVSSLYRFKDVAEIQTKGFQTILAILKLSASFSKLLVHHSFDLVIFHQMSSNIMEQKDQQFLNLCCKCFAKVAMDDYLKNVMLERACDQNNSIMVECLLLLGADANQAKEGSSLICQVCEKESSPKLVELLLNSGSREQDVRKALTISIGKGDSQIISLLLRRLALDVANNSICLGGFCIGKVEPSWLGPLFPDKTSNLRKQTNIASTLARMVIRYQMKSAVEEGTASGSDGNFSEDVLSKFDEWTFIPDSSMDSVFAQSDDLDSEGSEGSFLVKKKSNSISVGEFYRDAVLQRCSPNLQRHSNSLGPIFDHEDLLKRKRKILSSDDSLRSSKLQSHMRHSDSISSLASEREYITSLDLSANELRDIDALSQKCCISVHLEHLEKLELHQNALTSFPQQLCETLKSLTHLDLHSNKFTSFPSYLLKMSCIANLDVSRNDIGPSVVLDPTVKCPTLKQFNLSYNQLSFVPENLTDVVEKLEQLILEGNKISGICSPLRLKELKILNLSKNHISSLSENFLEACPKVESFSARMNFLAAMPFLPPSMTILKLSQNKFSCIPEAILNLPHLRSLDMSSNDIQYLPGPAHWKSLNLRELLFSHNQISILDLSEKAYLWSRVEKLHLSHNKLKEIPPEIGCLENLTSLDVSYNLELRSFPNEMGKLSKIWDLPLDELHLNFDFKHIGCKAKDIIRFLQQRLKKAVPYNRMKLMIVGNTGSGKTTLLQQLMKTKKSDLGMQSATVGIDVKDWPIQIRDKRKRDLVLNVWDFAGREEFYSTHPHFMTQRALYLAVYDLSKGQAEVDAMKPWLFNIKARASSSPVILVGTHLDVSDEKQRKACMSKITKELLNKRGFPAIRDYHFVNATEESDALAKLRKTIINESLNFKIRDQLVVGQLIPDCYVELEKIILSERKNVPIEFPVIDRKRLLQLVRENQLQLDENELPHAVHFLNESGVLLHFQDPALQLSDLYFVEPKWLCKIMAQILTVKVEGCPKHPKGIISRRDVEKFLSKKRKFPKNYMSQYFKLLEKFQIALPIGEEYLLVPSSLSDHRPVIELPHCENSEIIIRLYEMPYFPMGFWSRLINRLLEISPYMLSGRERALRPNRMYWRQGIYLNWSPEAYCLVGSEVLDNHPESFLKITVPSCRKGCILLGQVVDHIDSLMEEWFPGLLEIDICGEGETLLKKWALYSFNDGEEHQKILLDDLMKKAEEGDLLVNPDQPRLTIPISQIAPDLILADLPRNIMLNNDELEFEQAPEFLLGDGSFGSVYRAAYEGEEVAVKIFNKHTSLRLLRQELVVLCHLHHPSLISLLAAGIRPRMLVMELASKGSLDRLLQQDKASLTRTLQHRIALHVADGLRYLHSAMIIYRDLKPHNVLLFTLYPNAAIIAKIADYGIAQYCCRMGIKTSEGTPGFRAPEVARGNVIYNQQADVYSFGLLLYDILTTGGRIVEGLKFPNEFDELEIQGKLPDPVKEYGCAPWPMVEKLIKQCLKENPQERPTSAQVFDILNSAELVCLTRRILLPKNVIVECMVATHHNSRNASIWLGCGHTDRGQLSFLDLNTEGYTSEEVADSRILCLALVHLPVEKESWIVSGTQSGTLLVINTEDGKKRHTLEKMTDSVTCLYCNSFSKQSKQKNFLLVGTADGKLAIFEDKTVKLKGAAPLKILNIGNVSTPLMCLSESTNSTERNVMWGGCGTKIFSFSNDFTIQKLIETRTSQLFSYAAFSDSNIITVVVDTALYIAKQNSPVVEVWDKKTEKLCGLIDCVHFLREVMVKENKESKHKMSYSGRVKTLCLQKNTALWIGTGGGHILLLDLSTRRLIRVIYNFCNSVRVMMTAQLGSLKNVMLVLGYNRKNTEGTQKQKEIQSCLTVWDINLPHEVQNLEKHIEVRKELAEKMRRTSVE

COc1cc(C(=O)N2CCC(N3CCN(C)CC3)CC2)ccc1Nc1ncc2c(n1)N(C)c1ccccc1C(=O)N2C [15 (LRRK2-IN-1)]
KINOMEscan: LRRK2 (panel of 442 kinases): 0

CCOc1cc(C(=O)N2CCC(N3CCN(C)CC3)CC2)ccc1Nc1ncc2c(n1)N(C1CCCC1)c1ccccc1C(=O)N2C [Compound 26]
% Inhibition PITSLRE [1]: 3.5% | % Inhibiton, Erk1 ([2]; proteome HEL): -1.3% | % Inhibiton, Erk1 ([2]; proteome PC3): -0.2% | % Inhibiton, IRAK1 [3]: -2.9% | % Inhibiton, MAP3K2 ([4]; peptide ELAVk[…]): -11.2% | % Inhibiton, MAP3K2 ([4]; peptide […]k[…]): -12.3% | % Inhibition PI4KA,PI4KAP2 ([5]; proteome HEL): -4.3% | % Inhibition PI4KA,PI4KAP2 ([5]; proteome PC3): -19.2% | % Inhibition PKCa,PKCb [5, 6]: -2.9% | % Inhibition PKD1,PKD2 [5, 7]: 16.4% | % Inhibition ROCK1,ROCK2 [5, 8]: -4.8% | % Inhibition RSK1,RSK2 domain1 [5, 9]: 13.4% | % Inhibition RSK1,RSK4 domain1 ([5]; proteome HEL): 0.4% | % Inhibition SRPK1,SRPK2 [5, 10]: -3.7% | % Inhibition TAO1,TAO3 [5, 7]: -15.8% | % Inhibition TAO1,TAO3 [5, 8]: 1.7% | % Inhibition Wnk1,Wnk2,Wnk3 [5, 9]: 1.8% | % Inhibition Wnk1,Wnk2,Wnk4 ([5]; proteome PC3): -6.2% | % Inhibition ZC1/HGK,ZC2/TNIK,ZC3/MINK [5, 7]: -1.1% | % Inhibition ZC1/HGK,ZC2/TNIK,ZC3/MINK [5, 8]: -12.1% | % Inhibition p70S6K,p70S6Kb ([5]; proteome PC3): -1% | % Inhibiton, MAP3K2,MAP3K3 [5, 7]: -4.4% | % Inhibiton, IKKe,TBK1 [5, 7]: -55% | % Inhibiton, NEK6,NEK7 [5, 7]: 6.4% | % Inhibiton, JNK1,JNK2,JNK3 [5, 7]: 14% | % Inhibiton, AMPKa1,AMPKa2 [5, 11]: -22.8% | % Inhibiton, MARK2,MARK3 [5, 11]: -16.8% | % Inhibiton, MAST2,MAST4 [5, 11]: -23.7% | % Inhibiton, p38d,p38g [5, 11]: -11.7% | % Inhibiton, MAP2K1,MAP2K2 [5, 7]: 17.5% | % Inhibiton, MYO3A,MYO3B [5, 7]: 11.5% | % Inhibiton, BMX,BTK [5, 12]: -22.5% | % Inhibiton, MAP3K5,MAP3K6,MAP3K7 [5, 12]: 2% | % Inhibiton, KSR1,KSR2 ([5]; proteome HEL): 12.3% | % Inhibiton, AMPKa1,AMPKa2 [5, 13]: 6% | % Inhibiton, MSK1,MSK2 domain1 ([5]; proteome HEL): 7.4% | % Inhibiton, ABL,ARG ([5]; proteome HEL): -6.4% | % Inhibiton, MAP3K2,MAP3K3 [5, 8]: 5.5% | % Inhibiton, IKKe,TBK1 [5, 8]: -4.6% | % Inhibiton, MST1,MST2 [5, 8]: -5.4% | % Inhibiton, MST4,YSK1 [5, 8]: 0.5% | % Inhibiton, NEK6,NEK7 [5, 8]: -4.6% | % Inhibiton, CaMK2a,CaMK2b,CaMK2d,CaMK2g [5, 8]: -3.7% | % Inhibiton, JNK1,JNK2,JNK3 [5, 8]: 12.2% | % Inhibiton, AMPKa1,AMPKa2 [5, 14]: 12.1% | % Inhibiton, CDK11,CDK8 [5, 14]: 7.9% | % Inhibiton, MARK2,MARK3 [5, 14]: 3.7% | % Inhibiton, p38d,p38g [5, 14]: 8.3% | % Inhibiton, MAP2K1,MAP2K2 [5, 8]: 7.9% | % Inhibiton, CK1d,CK1e [5, 8]: 13% | % Inhibiton, MARK3,MARK4 [5, 10]: 0.6% | % Inhibiton, FYN,SRC,YES ([5]; proteome PC3): 5.5% | % Inhibiton, AMPKa1,AMPKa2 [5, 15]: 6.9%

COc1cc(C(=O)N2CCC(N3CCN(C)CC3)CC2)ccc1Nc1ncc2c(n1)N(C1CCCC1)c1ccccc1C(=O)N2C [Compound 25, 11-cyclopentyl-2-((2-methoxy-4-(4-(4-methylpiperazin-1-yl)piperidine-1-carbonyl)phenyl)amino)-5-methyl-5H-benzo[e]pyrimido[5,4-b][1,4]diazepin-6(11H)-one]
KINOMEscan: LRRK2 (panel of 442 kinases): 28 | % Inhibition PITSLRE [1]: 5.1% | % Inhibiton, Erk1 ([2]; proteome HEL): 20.3% | % Inhibiton, Erk1 ([2]; proteome PC3): 8.4% | % Inhibiton, IRAK1 [3]: 1.2% | % Inhibiton, MAP3K2 ([4]; peptide ELAVk[…]): 15.5% | % Inhibiton, MAP3K2 ([4]; peptide […]k[…]): 23.7% | % Inhibition PI4KA,PI4KAP2 ([5]; proteome HEL): 23.7% | % Inhibition PI4KA,PI4KAP2 ([5]; proteome PC3): -7.2% | % Inhibition PKCa,PKCb [5, 6]: 16.4% | % Inhibition PKD1,PKD2 [5, 7]: -30.1% | % Inhibition ROCK1,ROCK2 [5, 8]: 5.7% | % Inhibition RSK1,RSK2 domain1 [5, 9]: -6.2% | % Inhibition RSK1,RSK4 domain1 ([5]; proteome HEL): -4.9% | % Inhibition SRPK1,SRPK2 [5, 10]: -2.0% | % Inhibition TAO1,TAO3 [5, 7]: 21.0% | % Inhibition TAO1,TAO3 [5, 8]: -5.2% | % Inhibition Wnk1,Wnk2,Wnk3 [5, 9]: 9.6% | % Inhibition Wnk1,Wnk2,Wnk4 ([5]; proteome PC3): -9.4% | % Inhibition ZC1/HGK,ZC2/TNIK,ZC3/MINK [5, 7]: 10.0% | % Inhibition ZC1/HGK,ZC2/TNIK,ZC3/MINK [5, 8]: -6.5% | % Inhibition p70S6K,p70S6Kb ([5]; proteome PC3): -1.5% | % Inhibiton, MAP3K2,MAP3K3 [5, 7]: 14.4% | % Inhibiton, IKKe,TBK1 [5, 7]: 18.2% | % Inhibiton, NEK6,NEK7 [5, 7]: 6.9% | % Inhibiton, JNK1,JNK2,JNK3 [5, 7]: 33.5% | % Inhibiton, AMPKa1,AMPKa2 [5, 11]: 9.6% | % Inhibiton, MARK2,MARK3 [5, 11]: 9.5% | % Inhibiton, MAST2,MAST4 [5, 11]: 28.2% | % Inhibiton, p38d,p38g [5, 11]: 12.3% | % Inhibiton, MAP2K1,MAP2K2 [5, 7]: -0.9% | % Inhibiton, MYO3A,MYO3B [5, 7]: -3.3% | % Inhibiton, BMX,BTK [5, 12]: ~43.0% | % Inhibiton, MAP3K5,MAP3K6,MAP3K7 [5, 12]: -4.3% | % Inhibiton, KSR1,KSR2 ([5]; proteome HEL): 6.2% | % Inhibiton, AMPKa1,AMPKa2 [5, 13]: 10.9% | % Inhibiton, MSK1,MSK2 domain1 ([5]; proteome HEL): -9.5% | % Inhibiton, ABL,ARG ([5]; proteome HEL): 17.5% | % Inhibiton, MAP3K2,MAP3K3 [5, 8]: -0.6% | % Inhibiton, IKKe,TBK1 [5, 8]: 11.0% | % Inhibiton, MST1,MST2 [5, 8]: 8.8% | % Inhibiton, MST4,YSK1 [5, 8]: 1.0% | % Inhibiton, NEK6,NEK7 [5, 8]: -5.0% | % Inhibiton, CaMK2a,CaMK2b,CaMK2d,CaMK2g [5, 8]: -1.1% | % Inhibiton, JNK1,JNK2,JNK3 [5, 8]: 30.3% | % Inhibiton, AMPKa1,AMPKa2 [5, 14]: 16.4% | % Inhibiton, CDK11,CDK8 [5, 14]: 8.9% | % Inhibiton, MARK2,MARK3 [5, 14]: 11.6% | % Inhibiton, p38d,p38g [5, 14]: -6.8% | % Inhibiton, MAP2K1,MAP2K2 [5, 8]: -0.2% | % Inhibiton, CK1d,CK1e [5, 8]: -16.9% | % Inhibiton, MARK3,MARK4 [5, 10]: -5.2% | % Inhibiton, FYN,SRC,YES ([5]; proteome PC3): -32.2% | % Inhibiton, AMPKa1,AMPKa2 [5, 15]: 14.9%
